# Experiments:
# panel of protein kinases = assay: Specificity studies, overall statement; format: biochemical
# Method: The assays of kinases were determined by monitoring the phosphorylation of appropriate substrates. The assay mixture contained 0.1 mM cold ATP ^33P-γ-ATP (2000-4000 cpm/μL), 0.1 mM substrate, 1 mM DTT, and 10 mM MgCl2 in 100 mM HEPES buffer pH 7.4. The assay mixture, along with inhibitor and kinase enzyme (0.3-0.4 U/mL), was mixed together in a microtiter 96-well plate in a final volume of 40 μL, sealed and incbated for 1 hour at 30° C. Following incubation, a 15 μL aliquot was added to a Whatman P81 filtration plate containing 100 μL 0.5% phosphoric acid. This mixture was allowed to stand for 5 minutes prior to filtration on a vacuum manifold. The filter plate was washed with 5 successive additions of 300 μL 0.5% phosporic acid. The filtration plate was air dried for 10 minutes before sealing the bottom. After addition of scintillation fluid to the sealed plate, phosphorylated substrate was quantified in a scintillation counter.
# CCRF-CEM = assay: In vitro tumor cell efficacy test (SRB), Leukemia; format: cell-based; details: Homo sapiens, 72 hours
# HL-60(TB) = assay: In vitro tumor cell efficacy test (SRB), Leukemia; format: cell-based; details: Homo sapiens, 72 hours
# K-562 = assay: In vitro tumor cell efficacy test (SRB), Leukemia; format: cell-based; details: Homo sapiens, K562, K-562, Leukemia, 72 hours
# RPMI-8226 = assay: In vitro tumor cell efficacy test (SRB), Leukemia; format: cell-based; details: Homo sapiens, RPMI-8226, Leukemia, 72 hours
# A549/ATCC = format: cell-based; details: Homo sapiens, Non-Small Cell Lung Cancer, 72 hours
# EKVX = format: cell-based; details: Homo sapiens, Non-Small Cell Lung Cancer, 72 hours
# HOP-92 = format: cell-based; details: Homo sapiens, HOP-92, Non-Small Cell Lung Cancer, 72 hours
# NCI-H460 = format: cell-based; details: Homo sapiens, NCI-H460, Non-Small Cell Lung Cancer, 72 hours
# COLO 205 = assay: In vitro tumor cell efficacy test (SRB), Colon Cancer; format: cell-based; details: Homo sapiens, COLO 205, Colon Cancer, 72 hours
# HT29 = assay: as above; format: cell-based; details: Homo sapiens, HT-29, 72 hours
# KM12 = assay: as above; format: cell-based; details: Homo sapiens, 72 hours
# SW-620 = assay: as above; format: cell-based; details: Homo sapiens, SW-620, Colon Cancer, 72 hours
# SF-268 = assay: In vitro tumor cell efficacy test (SRB), CNS Cancer; format: cell-based; details: Homo sapiens, SF-268, CNS Cancer, 72 hours
# SNB-75 = assay: as above; format: cell-based; details: Homo sapiens, SNB-75, CNS Cancer, 72 hours
# LOX IMVI = assay: In vitro tumor cell efficacy test (SRB), Melonoma; format: cell-based; details: Homo sapiens, 72 hours
# MALME-3M = assay: In vitro tumor cell efficacy test (SRB), Melonoma; format: cell-based; details: Homo sapiens, 72 hours
# M14 = assay: In vitro tumor cell efficacy test (SRB), Melonoma; format: cell-based; details: Homo sapiens, 72 hours
# IGROV1 = assay: In vitro tumor cell efficacy test (SRB), Ovarian Cancer; format: cell-based; details: Homo sapiens, IGROV-1, 72 hours
# OVCAR-5 = assay: as above; format: cell-based; details: Homo sapiens; OVCAR-5, Ovarian Cancer, 72 hours
# SK-OV-3 = assay: as above; format: cell-based; details: Homo sapiens, SK-OV-3, Ovarian Cancer, 72 hours
# 786-0 = assay: In vitro tumor cell efficacy test (SRB), Renal Cancer; format: cell-based; details: Homo sapiens, 786-0, Renal Cancer, 72 hours
# SN12C = assay: as above; format: cell-based; details: Homo sapiens, 72 hours
# PC-3 = assay: In vitro tumor cell efficacy test (SRB), Prostate Cancer; format: cell-based; details: Homo sapiens, PC-3, Prostate Cancer, 72 hours
# MDA-MB-231/ATCC = assay: In vitro tumor cell efficacy test (SRB), Breast Cancer; format: cell-based; details: Homo sapiens, 72 hours
# MDA-N = assay: as above; format: cell-based; details: Homo sapiens, 72 hours
# [1] = system: different cancer cell lines; assay: In vitro tumor cell efficacy test (SRB), mean over all cell lines; format: cell-based; details: Mean over all cell lines of the table
# [2] = read-out: Log (LC50) (the source's name) (converted)
smiles,measurement,setting,value
"Nc1nccc(-c2cc(-c3ccc(O)cc3)ccc2O)n1 [3-(2-Amino-pyrimidin-4-yl)-biphenyl-4,4′-diol]",specificity,panel of protein kinases; CDK5 and CDK2 versus a panel of protein kinases,highly specific for CDK5 and CDK2
same,inhibition against a panel of protein kinases,panel of protein kinases; panel of protein kinases,little inhibition
same,GI50,CCRF-CEM,200 nM
same,CC50,CCRF-CEM; [2],79400 nM
same,GI50,HL-60(TB),126 nM
same,CC50,HL-60(TB); [2],79400 nM
same,GI50,K-562,398 nM
same,CC50,K-562; [2],> 100000 nM
same,GI50,RPMI-8226,200 nM
same,CC50,RPMI-8226; [2],> 100000 nM
same,GI50,A549/ATCC,316 nM
same,GI50,EKVX,251 nM
same,CC50,EKVX; [2],> 100000 nM
same,GI50,HOP-92,398 nM
same,CC50,HOP-92; [2],> 100000 nM
same,GI50,NCI-H460,251 nM
same,CC50,NCI-H460; [2],> 100000 nM
same,GI50,COLO 205,7940 nM
same,CC50,COLO 205; [2],> 100000 nM
same,GI50,HT29,3160 nM
same,CC50,HT29; [2],> 100000 nM
same,GI50,KM12,126 nM
same,CC50,KM12; [2],> 100000 nM
same,GI50,SW-620,316 nM
same,CC50,SW-620; [2],> 100000 nM
same,GI50,SF-268,251 nM
same,CC50,SF-268; [2],> 100000 nM
same,GI50,SNB-75,2000 nM
same,CC50,SNB-75; [2],> 100000 nM
same,GI50,LOX IMVI,200 nM
same,CC50,LOX IMVI; [2],> 100000 nM
same,GI50,MALME-3M,501 nM
same,CC50,MALME-3M; [2],> 100000 nM
same,GI50,M14,398 nM
same,CC50,M14; [2],> 100000 nM
same,GI50,IGROV1,251 nM
same,CC50,IGROV1; [2],> 100000 nM
same,GI50,OVCAR-5,2000 nM
same,LC50 (50% lethal concentration),OVCAR-5,> 100000 nM
same,GI50,SK-OV-3,501 nM
same,CC50,SK-OV-3; [2],> 100000 nM
same,GI50,786-0,251 nM
same,CC50,786-0; [2],> 100000 nM
same,GI50,SN12C,251 nM
same,CC50,SN12C; [2],> 100000 nM
same,GI50,PC-3,251 nM
same,CC50,PC-3; [2],> 100000 nM
same,GI50,MDA-MB-231/ATCC,251 nM
same,CC50,MDA-MB-231/ATCC; [2],> 100000 nM
same,GI50,MDA-N,251 nM
same,CC50,MDA-N; [2],> 100000 nM
same,CC50,"[1]; read-out: Log (LC50) (M), Mean (converted)",> 0.0001 M
same,GI50,"[1]; read-out: log (GI50) (M), Mean (converted)",3.16e-07 M

# From patent publication US20030187007A1, “Inhibitors of protein kinase for the treatment of disease” (priority 2001, published 2003)
